# Counter-ions that a name gives are not always drawn. Marks after values point to notes of the source that are not given here.
# Legend:
# [1] = system: fet3Δftr1Δ yeast; experiment: Growth rescue of fet3Δftr1Δ yeast with small molecules in liquid media; type: cell-based, Saccharomyces cerevisiae; details: liquid low iron SD media, 10 μM FeCl3
# Procedure: (§1) Growth rescue in yeast was performed similar to previously reported (20) using 10 μM hinokitiol in low iron SD liquid media containing 10 μM FeCl3 in a 96-well plate unless otherwise noted. Wild type and fet3Δftr1Δ controls treated with vehicle (DMSO) were performed under identical conditions using the same low iron SD media containing 10 μM FeCl3 in the absence of hinokitiol. Yeast were grown overnight in YPD media and diluted at an OD600 of 0.1 in SD media, diluted 10-fold, and incubated at 30° C. with continuous shaking (200 rpm). The OD600 was obtained 24-48 hours after inoculation unless otherwise noted.
# (§2) Small molecule dose-response (FIG. 1F) with hinokitiol and C2-deoxy hinokitiol (C2deOHino, see synthesis below) was determined by addition of the small molecule (40X stock solution in DMSO) to give the indicated final concentrations.
# [2] = system: wild-type yeast (WT); experiment: Toxicity to wild type yeast (structure-activity study, FIG. 25)
# Procedure: as §1, §2
# [3] = Lipophilicity determination for small molecule iron chelates (octanol-water partition); type: physicochemical; details: octanol-water partition coefficient
# Procedure: Concentrations of small molecule in water were determined via UV-Vis spectroscopy compared to known initial standards.
# [4] = Iron (II) binding affinity, ferrozine competition assay; details: pH 7.0
# Procedure: (§3) Specifically, the association constant for iron (II) was determined by a ferrozine competition assay (KA of ferrozine=3.65×10^15) (60). FeCl2 (25 μM) was pre-mixed with ferrozine (75 μM) in a 25 mM MES/Tris buffer at pH=7.0 containing 62.5 mM sodium ascorbate. Then increasing concentrations of small molecule (from 40X stocks in DMSO) were added to the indicated final concentrations. The solutions were allowed to equilibrate for 24 hours before reading of the absorbance at 562 nm. […] The system was allowed to equilibrate overnight, and the absorbance corresponding to the Fe(chelator)3 complex was determined. The EC50 values for each chelator were calculated by a nonlinear curve fit (Hill1) on OriginPro by plotting the absorbance vs. concentration of titrant, and the KA for each complex was determined from the equation: KA, ligand=(KA, competitor*[EC50])/[ligand] where the ligand is the molecule originally bound to iron, and the competitor is the competing chelator.
# [5] = Iron (III) binding affinity, EDTA or citrate competition assay; details: for KA for iron (III): EDTA competition (citrate for maltol), pH 7.0; for pFe^III: estimated from known pFe of EDTA (citrate for maltol)
# Procedure: as §3
# [6] = Electrochemical studies (cyclic voltammetry) of iron:chelator complexes; type: physicochemical
# Procedure: Potentiostatic electrochemical methods were performed on a CH Instruments electrochemical workstation (model 760 C, Austin, TX) on a three-electrode cell. Hg working electrodes were fabricated by the electrodeposition of Hg on a Pt wire utilizing the procedure previously described by Barton et al. (70). All experiments were reported versus a Ag/AgCl reference electrode and utilized a graphite auxiliary electrode. The electrolyte was sparged with UHP argon before measurements. A positive pressure of argon was maintained throughout the experiments.
# Unless otherwise indicated, experiments used a 0.1 M Tris buffer in H2O or 1:1 MeOH:H2O at pH=7.2 using HNO3 and KOH as titrant. Unless otherwise indicated, experiments used a 100 mV/s scan rate, 100 μM Fe(NO3)3, and 500 μM small molecule. All redox potentials are recorded versus a normal hydrogen electrode (NHE).
# The estimated redox potential of Fe(Hino)n was determined through extrapolation of the best-fit line of the determined redox potentials of Fe(Hino)n as a function of the concentration of MeOH in the 0.1 M Tris buffer at pH=7.2.
# [7] = not run under identical conditions, cited from earlier work; for E^0 Aqueous, literature value: Table 2, in parenthesis; for E^0 literature: Table 6
# [8] = system: fet3Δftr1Δ yeast; experiment: Growth rescue of iron-deficient yeast with small molecules on agar plates; type: cell-based, Saccharomyces cerevisiae; details: low iron SD-agar plates, 10 μM FeCl3
# [9] = system: DMT1-deficient Caco-2 monolayers; experiment: 55Fe uptake and transport in DMT1-deficient Caco-2 monolayers; details: apical addition (hinokitiol 500 nM); pH 5.5 apical, pH 7.4 basolateral; four hours
# Procedure: Media from differentiated Caco-2 monolayers (P25-50, 21-28 days post seeding) grown on PET inserts in 6-well plates was aspirated, and monolayers were rinsed with PBS. 2 mL of basolateral fluid (serum-free DMEM at pH=7.4 in 10 mM HEPES buffer) was added to the basolateralside, and 1 mL of apical fluid (serum-free DMEM at pH=5.5 in 10 mM MES buffer) containing 200 nM ^55FeCl3 or the indicated concentration of FeCl3 and either DMSO vehicle, hinokitiol, C2deOHino, deferiprone, PIH, SIH, or deferoxamine mesylate (Sigma D9533) (500 nM Hino/C2deOHino for DMT1-deficiency, 1 μM Hino/C2deOHino for FPN1-deficiency, or indicated concentration of small molecule from a 1000X stock in DMSO) was added to the apical side via addition on the wall of the membrane insert without disrupting the cell monolayer. The monolayers were then incubated for four hours at 37° C. unless otherwise noted. A 100 μL aliquot of the basolateral fluid was removed, diluted in scintillation cocktail, and radioactivity was determined on a liquid scintillation counter to quantify relative amounts of ^55Fe transport. To determine intracellular ^55Fe, the basolateral and apical media was removed, and the monolayer was rinsed with PBS (×2). The cells were then lysed with 500 μL of 200 mM NaOH with nutator mixing overnight, and radioactivity was determined on a liquid scintillation counter after diluting the cell lysate in scintillation cocktail. All values were normalized to shControl monolayers unless otherwise noted. Absolute iron levels were determined through calibration of ^55Fe radioactivity levels with known standards and average mg of protein per membrane was determined by protein lysis with RIPA buffer containing protease inhibitors and quantified through a BCA kit according to manufacturer instructions.
# TEER determination in Caco-2 monolayers (FIG. 12D and FIG. 14L) To determine Caco-2 membrane integrity, transport studies were performed as described above, except for the use of non-radioactive iron instead of ^55FeCl3. At the indicated time points, the transepithelial electrical resistance (TEER) was determined with an epithelial voltohmmeter and compared to the TEER of the membrane at the beginning of the experiment.
# [10] = system: hinokitiol-rescued fet3Δftr1Δ yeast; experiment: Chemical inhibition of yeast cell growth with inhibitors of Pma1, V-ATPase; type: cell-based, Saccharomyces cerevisiae; details: 10 μM hinokitiol, 10 μM FeCl3
# Procedure: Increasing dosages of caspofungin (Sigma SML0425), ebselen (Sigma 70530), or bafilomycin B1 (Santa Cruz sc-202072) (40X stocks in DMSO) were added to a yeast suspension (10-fold dilution from OD600=0.1) to give the indicated final dose. EC50 values were calculated from fitting of yeast growth curves using GraphPad PRISM.
# [11] = Iron efflux from liposomes using ferrozine; type: biochemical; details: 5 μM small molecule
# Procedure: Iron (III) efflux from POPC liposomes was determined similar to previously reported (64). POPC liposomes were prepared as similarly reported (65) using 30 mM FeCl3, 62.5 mM citrate at pH=7.0 in 25 mM Mes/Tris buffer. External iron was removed by size exclusion chromatography using Sephadex G-50 and eluting with external buffer. External buffer consisted of 62.5 mM ascorbate at pH=7.0 in 25 mM Mes/Tris buffer. The liposomes were diluted to 1 mM phosphorus in this buffer. Ferrozine (Sigma 160601) was added (100X stock in external buffer) to a final concentration of 500 μM. Liposomal suspension was then transferred to a 96-well plate, and either DMSO or 5 μM hinokitiol, C2deOHino, deferiprone, or PIH (40X stock solution in DMSO) were added to initiate the experiment. The OD562 was determined every minute over the course of 2 hours using a plate-reader with continuous shaking at 30° C. to detect the relative amounts of external ferrozine-iron chelate at the indicated times. After 2 hours, liposomes were lysed with Triton-X to give 100% iron efflux.
# Iron (II) efflux was performed as described above, however, the internal buffer alternatively consisted of 30 mM FeSO4, 62.5 mM ascorbate at pH=7.0 in 25 mM Mes/Tris buffer and Triton-X lysis was performed after 1 hour.
# The rates of iron efflux with increasing concentrations of intraliposomal iron and/or hinokitiol were determined as described above using the indicated concentration of iron and hinokitiol. For the varying concentrations of iron, hinokitiol (10 μM) was added to the POPC liposomes, and the change in absorbance at 562 nm was determined over 2 hours. For the varying concentrations of hinokitiol, 30 mM intraliposomal iron was used as described above. The concentration of iron outside of liposomes was determined using the extinction coefficient for ferrozine-iron (27,900 M^−1 cm^−1) (66). This was used to determine the amount of iron released from liposomes at the indicated times using the total volume for each experiment. Rates of iron efflux were determined after one hour of hinokitiol treatment.
# [12] = in parenthesis, cited from earlier work; for pFe^III, literature value: References 104, 106
# [13] = WST-8 toxicity in Caco-2 cells; details: human, wild type Caco-2 cells
# Procedure: Determination of small molecule-mediated toxicity in Caco-2, MEL, and/or J774 cells was performed according to manufacturer instructions using a WST-8 kit (Cayman Chemical 10010199) similar to previously reported (76) using a 1000× stock of the indicated small molecule in DMSO to give the indicated final concentration.
structure (smiles),measurement,setting,value
CC(C)CCc1cccc(O)c(=O)c1 [4-isopentyl tropolone],"restoration of fet3Δftr1Δ yeast growth, small molecule dose-response",[1],no rescue
same,toxicity to wild type yeast,[2],most toxic
O=c1cccccc1O [Tropolene],logP Fe^III Complex,[3],−0.03
same,KA for iron (II),[4],2.3 × 10^15
same,KA for iron (III),[5],1.1 × 10^24
same,pFe^III,[5],22^+
same,E^0 Aqueous,[6]; Table 2,39 mV vs. N.H.E.
same,E^0 1:1 MeOH:H2O,"[6]; Table 2, 0.1 M Tris, pH 7.2",38 mV vs. N.H.E.
same,"E^0 Aqueous, literature value",[7],(0)** mV vs. N.H.E.
"O=C(NN=Cc1ccccc1O)c1ccncc1 [SIH, salicylaldehyde isonicotinoyl hydrazone]",growth rescue of fet3Δftr1Δ yeast,[8],no growth rescue
same,iron uptake and transepithelial transport,[9],did not promote both uptake and transport
"CC(=O)N(O)CCCCCNC(=O)CCC(=O)N(O)CCCCCNC(=O)CCC(=O)N(O)CCCCCN [deferoxamine, deferoxamine mesylate]",iron uptake and transepithelial transport,[9],did not promote both uptake and transport
CC[C@H](C)C[C@H](C)CCCCCCCCC(=O)N[C@H]1C[C@@H](O)[C@@H](NCCN)NC(=O)[C@@H]2[C@@H](O)CCN2C(=O)[C@H]([C@H](O)CCN)NC(=O)[C@H]([C@H](O)[C@@H](O)c2ccc(O)cc2)NC(=O)[C@@H]2C[C@@H](O)CN2C(=O)[C@H]([C@@H](C)O)NC1=O [caspofungin],sensitivity of hinokitiol-rescued fet3Δftr1Δ yeast relative to hinokitiol-treated wild type yeast,[10],equisensitive
NC(=O)c1ccc[n+]([C@@H]2O[C@H](COP(=O)([O-])OP(=O)(O)OC[C@H]3O[C@@H](n4cnc5c(N)ncnc54)[C@H](OP(=O)(O)O)[C@@H]3O)[C@@H](O)[C@H]2O)c1 [NADP^+],E^0 literature,[7],108 mV vs. N.H.E.
"CO/C1=C\C(C)=C\[C@@H](C)[C@@H](O)[C@@H](C)C/C(C)=C/C=C/[C@H](OC)[C@@H]([C@@H](C)[C@@H](O)[C@H](C)[C@@]2(O)C[C@@H](OC(=O)/C=C/C(=O)NC3=C(O)CCC3=O)[C@H](C)[C@@H](C(C)C)O2)OC1=O [bafilomycin, bafilomycin B1]",sensitivity of hinokitiol-rescued fet3Δftr1Δ yeast relative to hinokitiol-treated wild type yeast,[10],increased sensitivity
"Cc1c(O)c(=O)ccn1C [Deferiprone, deferiprone]",growth rescue of fet3Δftr1Δ yeast,[8],no growth rescue
same,KA for iron (II),[4],2.1 × 10^15
same,KA for iron (III),[5],1.2 × 10^24
same,pFe^III,[5],22^+
same,transport of ferrous and ferric iron across model liposomal membranes,[11],minimal transport
same,E^0 Aqueous,[6]; Table 2,−420 mV vs. N.H.E.
same,E^0 1:1 MeOH:H2O,"[6]; Table 2, 0.1 M Tris, pH 7.2",−410 mV vs. N.H.E.
same,iron uptake and transepithelial transport,[9],did not promote both uptake and transport
same,"pFe^III, literature value",[12],(21)^§
same,"E^0 Aqueous, literature value",[7],(−423)^# mV vs. N.H.E.
same,EC90,[13],> 100 µM
"Cc1ncc(CO)c(C=NNC(=O)c2ccncc2)c1O [PIH, pyridoxal isonicotinoyl hydrazone]",growth rescue of fet3Δftr1Δ yeast,[8],no growth rescue
same,transport of ferrous and ferric iron across model liposomal membranes,[11],minimal transport
same,iron uptake and transepithelial transport,[9],did not promote both uptake and transport
same,EC90,[13],31 µM
O=C(O)CN(CCN(CC(=O)O)CC(=O)O)CC(=O)O [EDTA],KA for iron (II),[4],1.2 × 10^15
same,E^0 Aqueous,[6]; Table 2,131 mV vs. N.H.E.
same,E^0 1:1 MeOH:H2O,"[6]; Table 2, 0.1 M Tris, pH 7.2",139 mV vs. N.H.E.
same,"KA for iron (III), literature value",[12]; Reference 60,(1.7 × 10^24)*
same,"pFe^III, literature value",[12],(22)^∥
same,"E^0 Aqueous, literature value",[7],(137)**** mV vs. N.H.E.
"Cc1occc(=O)c1O [Maltol, maltol]",KA for iron (II),[4],7.8 × 10^13
same,KA for iron (III),[5],3.9 × 10^17
same,pFe^III,[5],15.4^±
same,E^0 Aqueous,[6]; Table 2,41 mV vs. N.H.E.
same,E^0 1:1 MeOH:H2O,"[6]; Table 2, 0.1 M Tris, pH 7.2",8 mV vs. N.H.E.
same,"pFe^III, literature value",[12],(15)^§
same,"E^0 Aqueous, literature value",[7],(40)*** mV vs. N.H.E.
"O=c1cccccc1O [Tropolone, tropolone]","restoration of fet3Δftr1Δ yeast growth, small molecule dose-response",[1],"shows rescue of Fet3Ftr1 yeast, but only at higher concentrations"
same,toxicity to wild type yeast,[2],does not show toxicity
O=C([O-])CN(CCN(CC(=O)[O-])CC(=O)[O-])CC(=O)[O-].[Fe+3] [Fe^III(EDTA)],E^0 Aqueous,[6]; Table 6,181 mV vs. N.H.E.
same,E^0 1:1 MeOH:H2O,"[6]; Table 6, pH 7.2, 500 μM small molecule, 100 μM Fe(NO3)3",139 mV vs. N.H.E.
same,E^0 literature,[7],137^§ mV vs. N.H.E.

# Reference: patent US12084411B2, “Hinokitiol analogues, methods of preparing and pharmaceutical compositions thereof” (The Board of Trustees of the University of Illinois, priority 2018, dated 2024)
